Test results taken from US7084176B2, “N-arylphenylacetamide derivatives and medicinal compositions containing the same” (Dainippon Pharmaceutical Co., Ltd., priority 2001, dated 2006).

Experiments:
[1] = tested on: Jcl:SD strain male rats; assay: Study of pungency (eye wiping test); type: in vivo; details: a drop into the eye of rats, counted for 3 minutes, average ± S.E.M.
Method: Experiment 2: Study of Pungency (Eye Wiping Test)
The pungency of the test compounds were studied referring to the method of Jancso et al. [Acta Physiol. Acad. Sci. Hung., 19, 113–131 (1961)] and the method of Szallasi et al. [Brit. J. Pharmacol., 119, 283–290 (1996)]. A test compound was dissolved in a physiological saline solution containing 10% ethanol and 10% Tween 80 into various concentrations (μg/ml), and a drop of the solution thereof was added dropwise into the eye of Jcl:SD strain male rats (5 to 25 […] per group, body weight; 220 to 280 g). Then, the number of the protective wiping movements with forefoot was counted for 3 minutes, and was considered as an index for pungency. The test results are expressed as average value±S.E.M., and the statistical significant differences between each test compound-treated group and the control group were analyzed using non-parametric Dunnett's multiple range test, and p<0.05 was considered as significant difference.

[2] = tested on: male Std:ddY mice; assay: Phenyl-1,4-benzoquinone-induced writhing test; type: in vivo; details: for inhibition in vivo at 10 mg/kg / ED50: Mus musculus, po; for inhibition in vivo at 10 mg/kg: 1 h, read-out: Inhibitory percentage (%); for ED50: read-out: ED50 (mg/kg po)
Outline: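 Compounds were given orally suspended in 0.5% tragacanth; subcutaneous controls got saline with 10% Tween 80 and 10% ethanol. Writhing counts after phenyl-1,4-benzoquinone were compared with vehicle controls as % inhibition [(A−B)/A]×100. ED50 (mg/kg) was derived by logit analysis.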

[3] = literature report; cited from earlier work
[4] = tested on: VR1 receptor; details: animal pain model; VR1 receptor antagonist; cited from earlier work
[5] = oral administration, writhing inhibition, logit analysis
[6] = orally administered at a dose of 10 mg/kg, 60 minutes before PBQ

COc1cc(CC(=O)Nc2cccc(-c3ccc4c(c3)OCO4)c2)ccc1OCCN [Example 164, 4-(2-aminoethoxy)-N-[3-(2H-benzo[d]-1,3-dioxolan-5-yl)phenyl]-3-methoxyphenylacetamide]
Number of wiping movements ([1]; concentration 100 μg/ml): 5.4 ± 2.8 | Number of wiping movements ([1]; concentration 500 μg/ml): no significant increase | Number of wiping movements ([1]; concentration 500 μg/ml, listed as Ex. 164): 2.8 ± 1.7 | ED50 (mg/kg po) [2, 5]: 1.56 mg/kg | Inhibitory percentage (%) ([2]; writhing inhibition, orally administered at a dose of 10 mg/kg, 60 minutes before PBQ): 99.0%

COc1cc(CC(=O)Nc2cccc(-c3cccc(Oc4ccccc4)c3)c2)ccc1OCCN [Example 186, 4-(2-aminoethoxy)-3-methoxy-N-[3-(3-phenoxyphenyl)phenyl]-phenylacetamide]
Number of wiping movements ([1]; concentration 100 μg/ml): 4.0 ± 1.1 | Number of wiping movements ([1]; concentration 500 μg/ml): 12.2 ± 2.0 | inhibition in vivo at 10 mg/kg [2, 6]: 84.3% | ED50 [2, 5]: 1.83 mg/kg

COc1cc(CC(=O)Nc2ccc3c(c2)C(=O)C(Cc2ccccc2)CC3)ccc1OCCN (stereo not shown) [Example 225, 4-(2-aminoethoxy)-3-methoxy-N-[1-oxo-2-phenylmethyl-1,2,3,4-tetrahydronaphthalen-7-yl]phenylacetamide]
Number of wiping movements ([1]; concentration 500 μg/ml): no significant increase | Number of wiping movements ([1]; concentration 500 μg/ml, listed as Ex. 225): 4.4 ± 2.1 | Number of wiping movements ([1]; concentration 1000 μg/ml): 1.6 ± 1.2 | inhibition in vivo at 10 mg/kg [2, 6]: 73.5% | ED50 [2, 5]: 4.79 mg/kg

CCCCCc1ccc(C(=O)NCc2ccc(O)c(OC)c2)cc1 [N-(4-hydroxy-3-methoxybenzyl)-4-pentylbenzamide]
analgesic effect [3]: no analgesic effect

Oc1cc2c(cc1O)CN(C(=S)NCCc1ccc(Cl)cc1)CCC2 [capsazepin]
analgesic effect [4]: significant analgesic effect
